In patent US8436195B2 (priority 2006, dated 2013):

Tests used:
[1] = tested on: cancer cells PC-3 (prostate carcinoma); test: Mitochondria membranes of PC-3 cancer cells after incubation with preparation; type: cell-based; conditions: PC-3 cells, diluted to 10^−5 mmol/l, 72 hours at 37° C.
Procedure: A control group was also formed consisting of the same number of vials with the same components except cancer cells, and instead, fibroblasts were put in the group vials. After thermostatting for 72 hours at 37° C. the contents of the above vials was analyzed.

[2] = water and alcohol; from Mashkovskiy, Medications; cited from earlier work

Structure (SMILES) | state of mitochondria membranes [1] | solubility [2]
COc1cccc2c1C(=O)c1c(O)c3c(c(O)c1C2=O)C[C@@](O)(C(=O)CO)C[C@@H]3O[C@H]1C[C@H](N)[C@H](O)[C@H](C)O1 [adriamycin] | membrane swelling | –
O=c1[nH]cc(F)c(=O)[nH]1 [fluororacil] | – | poorly soluble in water and alcohol
